This is an account of results in EP0502020B1, “NOVEL BENZO [b] PHENANTHROLINE-1,7 DERIVATIVES, AND THEIR PREPARATION AND THERAPEUTICAL APPLICATIONS” (PIERRE FABRE MEDICAMENT, priority 1989, dated 1991).

In this test the test system is leucémie murine L 1210. Nature of the test: Cytotoxic activity on murine leukaemia L 1210 cells in suspension culture, cell count after 48 h. Type of test: cell-based. Conditions: Mus musculus, L1210; concentration reducing growth by 50 % versus controls; 48 heures d'incubation; Coulter Counter; 37°C, 5 % CO₂. How it is done:
L'activité cytotoxique a été evaluée sur le modèle de la leucémie murine L 1210 cultivée en suspension en milieu iquide à 37°C sous une atmosphère de 5 % CO₂.
Les cellules en phase exponentielle de croissance sont incubées en présence de concentrations croissantes des produits. Après 48 heures d'incubation, les cellules sont comptées (Coulter Counter) et l'effet cytotoxique est évalué par la détermination par régression linéaire de la concentration du produit ayant réduit de 50 % la croissance par rapport aux témoins (IC₅₀).

SMILES strings stand for the structures.

Broadly, the IC50 is the concentration that inhibits the measured activity by half. Lower therefore signals higher potency. `CNc1ccc2cc3ccc4ncccc4c3nc2c1CO` [Exemple 7, Hydroxyméthyl-11 méthylamino-10 benzo [b] phénanthroline-1,7] showed an IC50 of 0.17 µM.

`COCc1c(O)ccc2cc3ccc4ncccc4c3nc12` [Exemple 2, Hydroxy-10 méthoxyméthyl-11 benzo [b] phénanthroline-1,7] displayed an IC50 of 6.5 µM.

Take `CNc1ccc2cc3ccc4ncccc4c3nc2c1COC` [Exemple 6, Méthoxyméthyl-11 méthylamino-10 benzo [b] phénanthroline-1,7]: the IC50 amounted to 1.1 µM.

In the case of `CN1COCc2c1ccc1cc3ccc4ncccc4c3nc21` [Exemple 4, Dihydro-3,4 méthyl-4 1H-benzoxazino [3,1] [5,6-b] phénanthroline-1,7], the IC50 is 1.3 µM. This IC50 and that of the molecule before are within 1.5-fold of each other.
